Literature values in patent US5610177A, “Acylated amino acids as endothelin antagonists” (Warner-Lambert Company, priority 1994, dated 1997).
Where a SMILES comes first, the peptide text is derived from it. Where no end group is shown, it is not given here. [ ]: non-standard residue; d: D form.

Assays:
[1] = conditions of hypoglycemia; cited from earlier work
[2] = local intra-arterial administration, rats; cited from earlier work
[3] = tested on: liver; conditions: cited from earlier work
[4] = tested on: Endothelin receptor subtype-A; conditions: intravenous infusion; cited from earlier work
[5] = tested on: Endothelin receptor subtype-A; conditions: intravenous infusion, stroke prone spontaneous hypertensive rats; cited from earlier work
[6] = tested on: ETA receptor; conditions: rats, i.v.; cited from earlier work
[7] = tested on: Endothelin receptor; conditions: rat model; cited from earlier work
[8] = tested on: ETA receptor; conditions: conscious rats; cited from earlier work
[9] = tested on: ETA receptor; conditions: rabbit retinal arteries, i.v.; cited from earlier work
[10] = tested on: Endothelin receptor; conditions: i.v., cited from earlier work

ET-3: one of a family of structurally similar bicyclic peptides (CTCFTYKDKECVYYCHLDIIW; not fully specified (bridges); cysteine pairing not given here; UniProt P14138 97-117, looked up)
striatal damage [1]: accelerate the development of striatal damage

Endothelin
small intestinal mucosal damage [2]: induce small intestinal mucosal damage in rats in a dose-dependent manner | hepatic vasoconstriction and glucose output [3]: sustained vasoconstriction of the hepatic vasculature and a significant increase in hepatic glucose output

CC(C)C[C@@H]1NC(=O)[C@@H](C(C)C)NC(=O)[C@@H]2CCCN2C(=O)[C@@H](CC(=O)O)NC(=O)[C@@H](Cc2c[nH]c3ccccc23)NC1=O [BQ-123] (cyclo(L[dW][dD]P[dV]))
prevention of acute hypoxia induced pulmonary hypertension [4]: effective in the prevention of acute hypoxia induced pulmonary hypertension | blood pressure [5]: decreased blood pressure significantly | renal vascular resistance [6]: blocked | acute CsA toxicity [7]: suppressed | antagonism of ET-1 induced pressor response [8]: effective in antagonizing the ET-1 induced pressor response | ET-1 induced vasoconstriction [9]: blocked | mitochondrial Ca2+ accumulation ([10]; early phase of ischemic acute renal failure in rats): prevents the mitochondrial [Ca^2+ ] accumulation | protection of proximal tubular cells ([10]; ischemic acute renal failure in rats): protects proximal tubular cells from post-ischemic degeneration
